“And” between values parts separate entries of the source, which are not always exact repeats. Equal values may be shown once.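 96-well plates; 48 h exposure; 5 concentrations. Endpoints by linear interpolation between flanking doses. Not reached: highest tested concentration assigned. Here, GI50 denotes the concentration required for 50% inhibition of growth. TGI marks complete inhibition of growth.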
Tests used:
Assay in all cases: NCI tumour cell line growth inhibition, 48 h
[1] = system: SR leukemia
[2] = system: OVCAR-5 ovarian
[3] = system: IGROV1 ovarian
[4] = system: OVCAR-8 ovarian
[5] = system: SF-539 CNS
[6] = system: PC-3 prostate
[7] = system: 786-0 renal
[8] = system: DU-145 prostate
[9] = system: CCRF-CEM leukemia
[10] = system: LOX IMVI melanoma

| Compound | TGI [1] | TGI [2] | TGI [3] | TGI [4] | TGI [5] | TGI [6] | TGI [7] | TGI [8] | TGI [9] | TGI [10] | GI50 [1] | GI50 [2] | GI50 [3] | GI50 [4] | GI50 [5] | GI50 [6] | GI50 [7] | GI50 [8] | GI50 [9] | GI50 [10] |
| --- | --- | --- | --- | --- | --- | --- | --- | --- | --- | --- | --- | --- | --- | --- | --- | --- | --- | --- | --- | --- |
| CC(C)c1ccc2nc3ccc(C(=O)NCCN(C)C)cn3c(=O)c2c1 | 63 µM | 33.2 µM | > 100 µM | 39.9 µM | 29.2 µM | 30.6 µM | 27.8 µM | > 100 µM | 32.1 µM |  |  |  |  |  |  |  |  |  |  |  |
| O=c1nc(-c2ccccc2)c2c3c(cccn13)CCC2 | > 100 µM | > 100 µM | > 100 µM | > 100 µM | > 100 µM |  | > 100 µM |  | > 100 µM | > 100 µM |  |  |  |  |  |  |  |  |  |  |
| CCc1ccccc1NC(=O)C(=O)C(C(=O)c1ccc(OC)cc1)c1ccc(OC)cc1 (stereo unspecified) |  | > 100 µM | > 100 µM | > 100 µM | > 100 µM |  | > 100 µM |  | > 100 µM | > 100 µM |  |  |  |  |  |  |  |  |  |  |
| COc1ccc(C2C(Cl)C(=O)N2n2cnc3ccccc3c2=O)cc1OC (stereo unspecified) | > 100 µM | > 100 µM | > 100 µM | > 100 µM |  |  | > 100 µM |  |  | > 100 µM |  |  |  |  |  |  |  |  |  |  |
| COC(=O)c1nc(NN)[nH]c(=O)c1CCCCCc1c(C(=O)OC)[nH]c(NN)cc1=O | > 58.9 µM | > 100 µM | > 100 µM | > 100 µM | > 100 µM |  | > 100 µM |  | > 100 µM | > 100 µM |  |  |  |  |  |  |  |  |  |  |
| O=c1oc2ccccc2c(O)c1C=NC(=S)c1ccncc1 |  | > 100 µM | > 100 µM | > 100 µM | > 100 µM | > 100 µM | > 100 µM | > 100 µM |  | > 100 µM |  |  |  |  |  |  |  |  |  |  |
| O=C1[C@@H](c2ccc(Cl)cc2)[C@H]2CC=C[C@H]2N1O |  |  | > 100 µM | > 100 µM | > 100 µM |  | > 100 µM |  | > 100 µM | > 100 µM |  |  |  |  |  |  |  |  |  |  |
| COc1ccc2nc(-c3ccccc3)cc(Nc3cccc(/C(C)=N\O)c3)c2c1 | > 100 µM | > 100 µM | > 100 µM | > 100 µM | 24.8 µM | 26.3 µM | 5.15 µM | 31.9 µM | > 100 µM |  | 3.36 µM | 33.7 µM | 24.4 µM | 3 µM | 6.61 µM | 4.72 µM | 2.09 µM | 6.46 µM | 58.7 µM |  |
| COc1ccc(-n2nnc3c(sc4ccccc43)c2=O)cc1 |  |  |  |  |  | > 100 µM | > 100 µM | > 100 µM |  | > 100 µM |  |  |  |  |  | > 100 µM | 3.61 µM | > 100 µM |  | > 100 µM |
| COC(=O)C1=CCON(c2ccccc2)C1c1ccccc1 (stereo unspecified) | > 100 µM | > 100 µM | > 100 µM |  | > 100 µM |  | > 100 µM |  | > 100 µM | > 100 µM |  |  |  |  |  |  |  |  |  |  |
| CON(C)C(=O)C(C)NC(=O)OCc1ccccc1 (stereo unspecified) | > 100 µM | > 100 µM | > 100 µM | > 100 µM | > 100 µM | > 100 µM | > 100 µM | > 100 µM | > 100 µM |  |  |  |  |  |  |  |  |  |  |  |
| CSc1nc2c(c(O)c(C)c(=O)n2C2OC(COC(C)=O)C(OC(C)=O)C(OC(C)=O)C2OC(C)=O)c(=O)n1C (stereo unspecified) |  | > 100 µM | > 100 µM | > 100 µM | > 100 µM |  | > 100 µM |  | > 100 µM | > 100 µM |  |  |  |  |  |  |  |  |  |  |
| CSc1ccc(/C=C2\CNC/C(=C\c3ccc(SC)cc3)C2=O)cc1 | 67.8 µM and > 190 µM | > 371 µM and 150 µg/mL | > 162 µM and 110 µg/mL | > 102 µM and 150 µg/mL | 32.7 µM and 43.8 µg/mL |  | 153 µM | > 371 µM | > 371 µM and 78.8 µg/mL | > 371 µM and 150 µg/mL | 23.3 µM | 150 µg/mL | 26.3 µg/mL | 116 µg/mL | 15.2 µg/mL |  |  |  | 29.1 µg/mL | 7.76 µM and 150 µg/mL |
| CC(C)N(C(=O)C12C3C4C1C1C2C3C41C(O)C(C)(C)C)C(C)C (stereo unspecified) | > 50 µM |  | > 50 µM | > 50 µM | > 50 µM |  | > 50 µM |  | > 50 µM |  |  |  |  |  |  |  |  |  |  |  |
| Nc1cc(N)c2nc(-c3ccccc3)c(Oc3ccc(F)cc3)nc2c1 | > 100 µM | 47.6 µM | > 100 µM | 47.4 µM | 35.7 µM | 46.3 µM | 36.3 µM | 36.8 µM |  | > 100 µM | 8.15 µM | 20.6 µM | 28.5 µM | 22.5 µM | 18.1 µM | 7.27 µM | 15.7 µM | 17.2 µM |  | 43.3 µM |
| CCC1(Br)C(=O)NC(=O)N(C2CC(O)C(CO)O2)C1N=[N+]=[N-] (stereo unspecified) |  | > 100 µM | > 100 µM | > 100 µM | > 100 µM |  | > 100 µM |  | > 100 µM | > 100 µM |  |  |  |  |  |  |  |  |  |  |
| COc1ccc([C@H]2CC(=O)N3CCCC3N2)cc1 (stereo partly specified) | > 100 µM | > 100 µM | > 100 µM | > 100 µM | > 100 µM |  | > 100 µM |  | > 100 µM |  |  |  |  |  |  |  |  |  |  |  |
| N#CC(C#N)SCc1ccccc1 |  | > 40.3 µM | > 100 µM | 49.9 µM | 13.1 µM | > 100 µM | > 100 µM | 55.3 µM | > 87 µM | > 19.8 µM |  |  |  |  |  |  |  |  |  |  |
| NS(=O)(=O)c1ccc(N2Cc3cc(Cl)ccc3OC3=C2C(=O)N(CC2CCCCC2)C3=O)cc1 | 0.839 µM | 3.54 µM | 2.83 µM |  | 2.82 µM | 2.09 µM | 0.482 µM | 2.25 µM |  | 2.32 µM | 0.284 µM | 1.76 µM | 1.34 µM |  | 1.47 µM | 0.519 µM | 0.207 µM | 1.06 µM |  | 1.01 µM |
| Cc1cc(C)c2c(c1)CN1CN2Cc2cc(C)cc(C)c21 | 39.3 µM | > 100 µM | > 100 µM | 39.5 µM |  |  | 34.7 µM |  | 68.2 µM | 30.7 µM |  |  |  |  |  |  |  |  |  |  |
| Nc1nc2c(ncn2Cc2ccccc2CCO)c(=O)[nH]1 |  | > 100 µM | > 100 µM | > 100 µM |  |  | > 100 µM |  | > 100 µM | > 100 µM |  |  |  |  |  |  |  |  |  |  |
| CC1(C)C(=O)C(O)=CC2C1=CCC1C2(C)C(=O)CC2(C)C(C(C)(O)C(=O)CC(O)C(C)(C)O)C(O)CC12C (stereo unspecified) | 25.3 µM | > 100 µM | 7.1 µM | > 100 µM | 5.98 µM |  | 5.65 µM |  | 12 µM | 6.95 µM |  |  |  |  |  |  |  |  |  |  |

Reference: PubChem BioAssay (NCI)
